In ChEMBL document CHEMBL3352201, “P21-Activated Kinase 4 (PAK4) Inhibitors as Potential Cancer Therapy” (ACS Med Chem Lett, 2015):

Assays:
[1] = molecular target: Serine/threonine-protein kinase PAK 4 (Homo sapiens, UniProt O96013); assay: Inhibition of human recombinant PAK4 kinase domain assessed as phosphorylation of FRET peptide substrate at Ser/Thr20 by […] assay
[2] = molecular target: Serine/threonine-protein kinase PAK 1 (Homo sapiens, UniProt Q13153); assay: Inhibition of human recombinant PAK1 kinase domain assessed as phosphorylation of FRET peptide substrate at Ser/Thr20 by […] assay
Sequence of Serine/threonine-protein kinase PAK 1 (Q13153 whole entry, the tested form may be a part): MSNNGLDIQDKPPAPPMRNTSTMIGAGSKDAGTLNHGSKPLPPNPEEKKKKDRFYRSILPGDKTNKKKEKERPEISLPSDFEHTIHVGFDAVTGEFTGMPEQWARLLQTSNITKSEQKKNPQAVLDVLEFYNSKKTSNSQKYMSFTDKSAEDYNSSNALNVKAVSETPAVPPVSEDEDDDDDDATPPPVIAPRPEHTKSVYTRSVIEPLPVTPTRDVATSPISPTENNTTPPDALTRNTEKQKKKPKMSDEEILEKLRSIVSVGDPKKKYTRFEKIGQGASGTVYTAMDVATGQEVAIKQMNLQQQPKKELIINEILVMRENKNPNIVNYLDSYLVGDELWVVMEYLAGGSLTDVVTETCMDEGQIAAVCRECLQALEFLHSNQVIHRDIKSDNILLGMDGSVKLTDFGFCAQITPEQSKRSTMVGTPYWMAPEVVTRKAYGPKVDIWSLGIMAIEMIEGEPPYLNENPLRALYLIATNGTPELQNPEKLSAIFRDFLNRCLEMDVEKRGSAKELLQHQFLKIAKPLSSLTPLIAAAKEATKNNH

Sequence of Serine/threonine-protein kinase PAK 4 (O96013 whole entry, the tested form may be a part): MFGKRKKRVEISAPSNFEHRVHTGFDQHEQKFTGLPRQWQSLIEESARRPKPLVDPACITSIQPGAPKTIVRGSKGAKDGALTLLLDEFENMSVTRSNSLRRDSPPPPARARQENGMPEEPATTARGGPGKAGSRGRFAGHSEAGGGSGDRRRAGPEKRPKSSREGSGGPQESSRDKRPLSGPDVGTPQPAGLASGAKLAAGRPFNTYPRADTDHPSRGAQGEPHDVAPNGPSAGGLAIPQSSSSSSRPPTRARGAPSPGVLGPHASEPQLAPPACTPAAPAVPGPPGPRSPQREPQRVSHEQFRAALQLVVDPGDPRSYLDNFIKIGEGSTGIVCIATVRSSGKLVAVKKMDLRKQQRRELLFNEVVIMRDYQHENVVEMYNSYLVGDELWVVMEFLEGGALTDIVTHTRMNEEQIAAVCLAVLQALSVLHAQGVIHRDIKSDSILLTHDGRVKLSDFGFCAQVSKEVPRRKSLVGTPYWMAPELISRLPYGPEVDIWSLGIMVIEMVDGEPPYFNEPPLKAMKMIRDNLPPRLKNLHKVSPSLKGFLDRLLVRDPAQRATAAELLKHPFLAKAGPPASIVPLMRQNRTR

| IC50 [1] | IC50 [2] | Compound |
| --- | --- | --- |
| 4.77 nM |  | COCCNc1nc2ccc(C#CC3(O)CCCCC3)cc2n1-c1ccnc(N)n1 |
| 5.3 nM | > 4500 nM | CCNc1nc2ccc(C#C[C@@](C)(O)c3cc(C)on3)cc2n1-c1ncnc(N)n1 |
| 35.5 nM | > 4500 nM | CNc1nc2ccc(C#C[C@@](C)(O)c3cc(C)on3)cc2n1-c1ncnc(N)n1 |
| 65.5 nM | 9600 nM | CCNc1nc2ccc(C#CC(C)(C)O)cc2n1-c1ncnc(N)n1 |
